Source: the supplement of paper PMC10307832

Experiments:
Assay in all cases: relative viability (nuclei count vs DMSO), 5 days (fraction); higher = more cells survive
A-427 = system: A-427
Outline: (§1)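 Relative viability equals treated-well nuclei counts divided by vehicle-well nuclei counts. Counts came from 4× images of lung cancer cell lines grown in 1536-well plates for 5 days after pin-tool dosing on the day after seeding. Dosing used one drug alone or a fixed anchor-drug dose plus five library-drug doses (not always all listed) in √10 steps, and values are medians of duplicate plates.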

ABC-1 = system: ABC-1
Outline: as §1

EMC-BAC-2 = system: EMC-BAC-2
Outline: as §1

HARA = system: HARA
Outline: as §1

HOP-62 = system: HOP-62
Outline: as §1

LK-2 = system: LK-2
Outline: as §1

LXF-289 = system: LXF-289
Outline: as §1

NCI-H1792 = system: NCI-H1792
Outline: as §1

NCI-H1944 = system: NCI-H1944
Outline: as §1

NCI-H1993 = system: NCI-H1993
Outline: as §1

NCI-H2009 = system: NCI-H2009
Outline: as §1

NCI-H2170 = system: NCI-H2170
Outline: as §1

NCI-H2228 = system: NCI-H2228
Outline: as §1

NCI-H3122 = system: NCI-H3122
Outline: as §1

NCI-H322M = system: NCI-H322M
Outline: as §1

NCI-H522 = system: NCI-H522
Outline: as §1

NCI-H596 = system: NCI-H596
Outline: as §1

NCI-H727 = system: NCI-H727
Outline: as §1

PC-3 [JPC-3] = system: PC-3 [JPC-3]
Outline: as §1

SK-MES-1 = system: SK-MES-1
Outline: as §1

SW 1573 = system: SW 1573
Outline: as §1

SW 900 = system: SW 900
Outline: as §1

Structure (SMILES): Cc1sc2c(c1C)C(c1ccc(Cl)cc1)=N[C@@H](CC(=O)OC(C)(C)C)c1nnc(C)n1-2 [JQ1] + N=C(N)NC(=N)NCCc1ccccc1 [Phenformin] (partner 250 µM)
- relative viability (A-427; first compound 0.04 µM): 0.315
- relative viability (A-427; first compound 0.1265 µM): 0.241
- relative viability (A-427; first compound 0.4 µM): 0.341
- relative viability (A-427; first compound 1.265 µM): 0.276
- relative viability (A-427; first compound 4 µM): 0.228
- relative viability (ABC-1; first compound 0.04 µM): 0.238
- relative viability (ABC-1; first compound 0.1265 µM): 0.282
- relative viability (ABC-1; first compound 0.4 µM): 0.225
- relative viability (ABC-1; first compound 1.265 µM): 0.227
- relative viability (ABC-1; first compound 4 µM): 0.232
- relative viability (EMC-BAC-2; first compound 0.04 µM): 0.551
- relative viability (EMC-BAC-2; first compound 0.1265 µM): 0.326
- relative viability (EMC-BAC-2; first compound 0.4 µM): 0.454
- relative viability (EMC-BAC-2; first compound 1.265 µM): 0.267
- relative viability (EMC-BAC-2; first compound 4 µM): 0.264
- relative viability (HARA; first compound 0.04 µM): 0.465
- relative viability (HARA; first compound 0.1265 µM): 0.236
- relative viability (HARA; first compound 0.4 µM): 0.484
- relative viability (HARA; first compound 1.265 µM): 0.173
- relative viability (HARA; first compound 4 µM): 0.186
- relative viability (HOP-62; first compound 0.04 µM): 0.633
- relative viability (HOP-62; first compound 0.1265 µM): 0.547
- relative viability (HOP-62; first compound 0.4 µM): 0.622
- relative viability (HOP-62; first compound 1.265 µM): 0.182
- relative viability (HOP-62; first compound 4 µM): 0.102
- relative viability (LK-2; first compound 0.04 µM): 0.298
- relative viability (LK-2; first compound 0.1265 µM): 0.379
- relative viability (LK-2; first compound 0.4 µM): 0.21
- relative viability (LK-2; first compound 1.265 µM): 0.101
- relative viability (LK-2; first compound 4 µM): 0.147
- relative viability (LXF-289; first compound 0.04 µM): 0.518
- relative viability (LXF-289; first compound 0.1265 µM): 0.474
- relative viability (LXF-289; first compound 0.4 µM): 0.444
- relative viability (LXF-289; first compound 1.265 µM): 0.323
- relative viability (LXF-289; first compound 4 µM): 0.316
- relative viability (NCI-H1792; first compound 0.04 µM): 0.323
- relative viability (NCI-H1792; first compound 0.1265 µM): 0.19
- relative viability (NCI-H1792; first compound 0.4 µM): 0.232
- relative viability (NCI-H1792; first compound 1.265 µM): 0.106
- relative viability (NCI-H1792; first compound 4 µM): 0.0948
- relative viability (NCI-H1944; first compound 0.04 µM): 0.195
- relative viability (NCI-H1944; first compound 0.1265 µM): 0.174
- relative viability (NCI-H1944; first compound 0.4 µM): 0.191
- relative viability (NCI-H1944; first compound 1.265 µM): 0.149
- relative viability (NCI-H1944; first compound 4 µM): 0.182
- relative viability (NCI-H1993; first compound 0.04 µM): 0.49
- relative viability (NCI-H1993; first compound 0.1265 µM): 0.55
- relative viability (NCI-H1993; first compound 0.4 µM): 0.561
- relative viability (NCI-H1993; first compound 1.265 µM): 0.557
- relative viability (NCI-H1993; first compound 4 µM): 0.572
- relative viability (NCI-H2009; first compound 0.04 µM): 0.477
- relative viability (NCI-H2009; first compound 0.1265 µM): 0.339
- relative viability (NCI-H2009; first compound 0.4 µM): 0.291
- relative viability (NCI-H2009; first compound 1.265 µM): 0.205
- relative viability (NCI-H2009; first compound 4 µM): 0.223
- relative viability (NCI-H2170; first compound 0.04 µM): 0.408
- relative viability (NCI-H2170; first compound 0.1265 µM): 0.394
- relative viability (NCI-H2170; first compound 0.4 µM): 0.402
- relative viability (NCI-H2170; first compound 1.265 µM): 0.354
- relative viability (NCI-H2170; first compound 4 µM): 0.315
- relative viability (NCI-H2228; first compound 0.04 µM): 0.305
- relative viability (NCI-H2228; first compound 0.1265 µM): 0.275
- relative viability (NCI-H2228; first compound 0.4 µM): 0.297
- relative viability (NCI-H2228; first compound 1.265 µM): 0.181
- relative viability (NCI-H2228; first compound 4 µM): 0.207
- relative viability (NCI-H3122; first compound 0.04 µM): 0.362
- relative viability (NCI-H3122; first compound 0.4 µM): 0.377
- relative viability (NCI-H3122; first compound 1.265 µM): 0.313
- relative viability (NCI-H3122; first compound 4 µM): 0.264
- relative viability (NCI-H322M; first compound 0.04 µM): 0.686
- relative viability (NCI-H322M; first compound 0.1265 µM): 0.746
- relative viability (NCI-H322M; first compound 0.4 µM): 0.66
- relative viability (NCI-H322M; first compound 1.265 µM): 0.373
- relative viability (NCI-H322M; first compound 4 µM): 0.417
- relative viability (NCI-H522; first compound 0.04 µM): 0.656
- relative viability (NCI-H522; first compound 0.1265 µM): 0.615
- relative viability (NCI-H522; first compound 0.4 µM): 0.55
- relative viability (NCI-H522; first compound 1.265 µM): 0.519
- relative viability (NCI-H522; first compound 4 µM): 0.323
- relative viability (NCI-H596; first compound 0.04 µM): 0.702
- relative viability (NCI-H596; first compound 0.1265 µM): 0.812
- relative viability (NCI-H596; first compound 0.4 µM): 0.829
- relative viability (NCI-H596; first compound 1.265 µM): 0.374
- relative viability (NCI-H596; first compound 4 µM): 0.348
- relative viability (NCI-H727; first compound 0.04 µM): 0.458
- relative viability (NCI-H727; first compound 0.1265 µM): 0.282
- relative viability (NCI-H727; first compound 0.4 µM): 0.368
- relative viability (NCI-H727; first compound 1.265 µM): 0.393
- relative viability (NCI-H727; first compound 4 µM): 0.343
- relative viability (PC-3 [JPC-3]; first compound 0.04 µM): 0.466
- relative viability (PC-3 [JPC-3]; first compound 0.1265 µM): 0.474
- relative viability (PC-3 [JPC-3]; first compound 0.4 µM): 0.46
- relative viability (PC-3 [JPC-3]; first compound 1.265 µM): 0.461
- relative viability (PC-3 [JPC-3]; first compound 4 µM): 0.376
- relative viability (SK-MES-1; first compound 0.04 µM): 0.672
- relative viability (SK-MES-1; first compound 0.1265 µM): 0.496
- relative viability (SK-MES-1; first compound 0.4 µM): 0.428
- relative viability (SK-MES-1; first compound 1.265 µM): 0.307
- relative viability (SK-MES-1; first compound 4 µM): 0.199
- relative viability (SW 1573; first compound 0.04 µM): 0.331
- relative viability (SW 1573; first compound 0.1265 µM): 0.304
- relative viability (SW 1573; first compound 0.4 µM): 0.402
- relative viability (SW 1573; first compound 1.265 µM): 0.231
- relative viability (SW 1573; first compound 4 µM): 0.233
- relative viability (SW 900; first compound 0.04 µM): 0.462
- relative viability (SW 900; first compound 0.1265 µM): 0.519
- relative viability (SW 900; first compound 0.4 µM): 0.285
- relative viability (SW 900; first compound 1.265 µM): 0.187
- relative viability (SW 900; first compound 4 µM): 0.139
